Laboratory results reported in patent US7524936B2, “Mitogenic oxygenase regulators” (Emory University, priority 2000, dated 2009).

How the values were obtained:
[1] = tested on: Nox 4 enzyme and Nox 5 enzyme; test: cell-free assay for Nox 4 / Nox 5 NADPH-oxidase activity (NADPH-dependent chemiluminescence); type: biochemical, human; details: MgCl2 1-5 mM; cell lysate, 200 μM NADPH, 10 μM lucigenin, 37° C.
Method: In an alternate and preferred embodiment of the present invention, cells that are stably transfected with Nox 4 (YA28), Nox 5 (YA28) or with empty vector (NEF2) are grown in 10 cm tissue culture plates in medium containing DMEM, 10% calf serum, 100 units/ml penicillin, 100 μg/ml streptomycin, and 1 μg/ml puromycin to approximately 80% confluency. Cells (five tissue culture plates of each cell type) are washed briefly with 5 ml phosphate buffered saline (PBS) then dissociated from the plates with PBS containing 5 mM EDTA. Cells are pelleted by centrifuging briefly at 1000×g.
To permeabilize the cells, freeze thaw lysis is carried out and this is followed by passage of the cell material through a small bore needle. The supernatant is removed and the cells are frozen on dry ice for 15 minutes. […]
The cell lysates are assayed for protein concentration using the BioRad protein assay system. […] The reaction is initiated by adding 1.5 mM NADPH and 75 μM lucigenin to the assay mix to give a final concentration of 200 μM NADPH and 10 μM lucigenin, and the chemiluminescence is monitored immediately. […] The plate is monitored continuously for 60 minutes and the maximal relative luminescence unit (RLU) value for each sample is used for the graph. […]

[2] = tested on: lysates of NIH 3T3 cells stably transfected with the human Nox 4 gene or human Nox 5 gene; test: NADPH-dependent superoxide generation, lucigenin luminescence assay in cell lysates; type: biochemical; details: 30 μg cell lysate, 200 μM NADPH, 500 μM lucigenin
Method: In one embodiment of the present invention, NIH 3T3 cells stably transfected with the human Nox 4 gene (SEQ ID NO:1) or human Nox 5 gene (SEQ ID NO:3) are analyzed for superoxide generation using the lucigenin (Bis-N-methylacridinium luminescence assay (Sigma, St. Louis, Mo., Li et al. (1998) J. Biol. Chem. 273, 2015-2023). Cells are washed with cold HANKS' solution and homogenized on ice in HANKS' buffer containing 15% sucrose using a Dounce homogenizer. Cell lysates are frozen immediately in a dry ice/ethanol bath. For the assay, 30 μg of cell lysate is mixed with 200 μM NADPH and 500 μM lucigenin. Luminescence is monitored using a LumiCounter (Packard) at three successive one minute intervals and the highest value was used for comparison. Protein concentration is determined by the Bradford method.
Superoxide generation is monitored in lysates from some of the stably transfected cell lines and is compared with superoxide generation by the untransfected NIH 3T3 cell lysates.

Row | Molecule | enhancement of NADPH-oxidase activity [1] | luminescent signal (superoxide generation) [2]
1 | [Cl-].[Cl-].[Mg+2] [MgCl2] | about 2 fold | –
2 | c1ccc2c(c1)[I+]c1ccccc1-2 [diphenylene iodonium, reference compound] | – | inhibited
3 | superoxide dismutase [reference compound] | – | inhibited
4 | p67phox: recombinant human cytosolic factor of the phagocyte respiratory-burst oxidase (protein, UniProt P19878 1-526, looked up) Neutrophil cytosol factor 2: MSLVEAISLWNEGVLAADKKDWKGALDAFSAVQDPHSRICFNIGCMYTILKNMTEAEKAFTRSINRDKHLAVAYFQRGMLYYQTEKYDLAIKDLKEALIQLRGNQLIDYKILGLQFKLFACEVLYNIAFMYAKKEEWKKAEEQLALATSMKSEPRHSKIDKAMECVWKQKLYEPVVIPVGKLFRPNERQVAQLAKKDYLGKATVVASVVDQDSFSGFAPLQPQAAEPPPRPKTPEIFRALEGEAHRVLFGFVPETKEELQVMPGNIVFVLKKGNDNWATVMFNGQKGLVPCNYLEPVELRIHPQQQPQEESSPQSDIPAPPSSKAPGRPQLSPGQKQKEEPKEVKLSVPMPYTLKVHYKYTVVMKTQPGLPYSQVRDMVSKKLELRLEHTKLSYRPRDSNELVPLSEDSMKDAWGQVKNYCLTLWCENTVGDQGFPDEPKESEKADANNQTTEPQLKKGSQVEALFSYEATQPEDLEFQEGDIILVLSKVNEEWLEGECKGKVGIFPKVFVEDCATTDLESTRREV | – | unaffected
5 | p47phox: recombinant human cytosolic factor of the phagocyte respiratory-burst oxidase (protein, UniProt P14598 1-390, looked up) Neutrophil cytosol factor 1: MGDTFIRHIALLGFEKRFVPSQHYVYMFLVKWQDLSEKVVYRRFTEIYEFHKTLKEMFPIEAGAINPENRIIPHLPAPKWFDGQRAAENRQGTLTEYCSTLMSLPTKISRCPHLLDFFKVRPDDLKLPTDNQTKKPETYLMPKDGKSTATDITGPIILQTYRAIANYEKTSGSEMALSTGDVVEVVEKSESGWWFCQMKAKRGWIPASFLEPLDSPDETEDPEPNYAGEPYVAIKAYTAVEGDEVSLLEGEAVEVIHKLLDGWWVIRKDDVTGYFPSMYLQKSGQDVSQAQRQIKRGAPPRRSSIRNAHSIHQRSRKRLSQDAYRRNSVRFLQQRRRQARPGPQSPGSPLEEERQTQRSKPQPAVPPRPSADLILNRCSESTKRKLASAV | – | unaffected
